Measured values from patent US20190041401A1, “Methods of Treating Subjects having Severe and/or Persistent Asthma” (National Jewish Health, priority 2015, published 2019).

How the values were obtained:
MEK^low population = assay: Sensitivity of MEK^low CD4 population to dexamethasone-induced cell death; assay type: cell-based, human; conditions: BAL CD4 T cells, MEK^low (MFI 10)
Text: FIGS. 5A-5H show the preferential expression of dual-positive TH2/TH17 cells in the BAL MEK^high CD4 T-cell population. FIGS. 5A and 5B, show the sensitivity of MEK^high and MEK^low CD4 populations to dexamethasone-induced cell death. Data are presented as percentages and absolute cell counts (in parentheses) per boxed area. […] FIGS. 5E and 5F show expression of dual-positive TH2/TH17 cells in MEK^high and MEK^low BAL CD4 T-cell populations. FIGS. 5G and 5H show the comparison of expression of dual-positive IL-4/IL-17 (FIG. 5G) and pSTAT3/pSTAT6 (FIG. 5H) cells in MEK^high and MEK^low cell populations.
Patients were allowed to continue their routine medication. Bronchoscopy and BAL were performed, as described previously (Good J T Jr, et al. Refractory asthma: importance of bronchoscopy to identify phenotypes and direct therapy. Chest 2012; 141:599-606). BAL fluid was processed immediately. Cells were isolated by means of centrifugation. Supernatant fluid was placed into aliquots in small samples and frozen. Cells were either cultured or fixed immediately in 4% paraformaldehyde and processed for flow cytometry. […]
Cells were stained with the following antibodies. […] This was detected with an Alexa Fluor 488-labeled anti-rabbit secondary antibody. […] Flow cytometric data were analyzed with FlowJo software (Tree Star, Ashland, Ore). […]

A549 cells [1] = assay: IL-33 autoinduction in A549 cells after cytokine pretreatment; assay type: cell-based, human; conditions: pretreated 24 hours with cytokine, then 72 hours with IL-33 (20 ng/mL)
Description: (§1) FIGS. 18A-18J show the role of IL-33 in the persistence of asthma. FIG. 18A, A549 cells were cultured in medium alone or with IL-33 ([…]), IL-1b (2 ng/mL), IL-4 (10 ng/mL), IL-13 (20 ng/mL), IL-17 (10 ng/mL), TNF (2 ng/mL), IFN-γ (10 ng/mL), or IFN-γ plus TNF (same concentrations) for 72 hours, and then mRNA was analyzed for IL-33 normalized to glyceraldehyde-3-phosphate dehydrogenase (GAPDH). *P<0.05 and **P<0.01. There were 4 to 8 mice per group. FIGS. 18B-18E show the direct effect of IL-33 on airway hyperreactivity, lung ILCs, and autoinduction. […] IN, Intranasal. […] The change in RL with the 25-mg dose of methacholine is shown (n=5 per group). *P<0.05.
(§2) Immediately after flexiVent analysis, lung sections were collected in RIPA buffer (50 mmol/L Tris [pH 7.4], 150 mmol/L NaCl, 1 mmol/L EDTA, 1 mmol/L NaF, 1 mmol/L Na3VO4, and 0.1 mmol/L phenylmethylsulfonyl fluoride) containing protease and phosphatase inhibitors and homogenized. […] Cellular RNA was analyzed for mRNA for IL-33 and IL-33R. […] Cellular RNAwas analyzed for mRNA for IL-33. […] Cellular RNA was analyzed for mRNA for IL-33. In a fourth experiment cells were treated for 24 hours with IL-13 (20 ng/mL) and ATP, and the supernatant was collected and analyzed for IL-33 levels by means of ELISA, according to the manufacturer's instructions (R&D systems). […]

A549 cells [2] = assay: Cytokine induction of IL-33R mRNA in A549 cells; assay type: cell-based, human; conditions: cytokine treatment for 72 hours
Description: as §1, §2

[3] = test system: human lung epithelial cell line A549; assay: IL-33 mRNA induction in A549 cells (real-time PCR); assay type: cell-based; conditions: cytokine treatment for 72 hours, normalized to GAPDH
Description: as §1
Immediately after flexiVent analysis, lung sections were collected in RIPA buffer (50 mmol/L Tris [pH 7.4], 150 mmol/L NaCl, 1 mmol/L EDTA, 1 mmol/L NaF, 1 mmol/L Na3VO4, and 0.1 mmol/L phenylmethylsulfonyl fluoride) containing protease and phosphatase inhibitors and homogenized. Lysed samples were subjected to 10% SDS-PAGE, transferred to a polyvinylidene difluoride membrane, and then immunoblotted with primary antibodies (IL-33 [R&D Systems], tubulin [H-235], and b-actin [Santa Cruz Biotechnology, Dallas, Tex]). After washing, the membranes were incubated with a horseradish peroxidase-conjugated secondary antibody. After additional washing, the membranes were developed with ECL reagent, as previously described (Gorska et al. 2007). A549 cell culture A549 cells were cultured in RPMI in 10% FBS (HyClone; Thermo Scientific, Waltham, Mass.) and 1% penicillin/streptomycin (Gibco, Carlsbad, Calif.) and maintained at 378C in a humidified 5% CO2 incubator. All cytokines were purchased from PeproTech (Rocky Hill, N.J.). In one experiment cells were treated with medium, IL-1b (2 ng/mL), IL-4 (10 ng/mL), IL-13 (20 ng/mL), IL-17 (10 ng/mL), IL-33 (20 ng/mL), TNF (2 ng/mL), IFN-g (10 ng/mL), and TNF (2 ng/mL) plus IFN-g (10 ng/mL) for 72 hours. Cellular RNA was analyzed for mRNA for IL-33 and IL-33R. In a second experiment cells were pretreated for 24 hours with medium, IL-1b (2 ng/mL), IL-4 (10 ng/mL), IL-13 (20 ng/mL), IL-17 (10 ng/mL), TNF (2 ng/mL), or IFN-g (10 ng/mL) before stimulation for 72 hours with IL-33 (20 ng/mL). Cellular RNAwas analyzed for mRNA for IL-33. In a third experiment cells were treated for 24 hours with DRA (5 μg/mL dust mite, 15 μg/mL ragweed, and 5 μg/mL Aspergillus species). Cellular RNA was analyzed for mRNA for IL-33. In a fourth experiment cells were treated for 24 hours with IL-13 (20 ng/mL) and ATP, and the supernatant was collected and analyzed for IL-33 levels by means of ELISA, according to the manufacturer's instructions (R&D systems). […]

A549 cells [4] = assay: IL-33 secretion by A549 cells (ELISA); assay type: cell-based, human; conditions: IL-13 20 ng/mL and ATP, overnight
Description: FIG. 27A, Effect of IL-13 on IL-33 secretion. A549 cells were treated overnight with medium or IL-13 (20 ng/mL) and ATP ([…]), and the released IL-33 was measured by using ELISA (n=6). *P=0.04. FIGS. 27B-27E, Direct effect of IL-33 on airway hyperreactivity and lung ILCs. C57Bl/6 mice were treated intranasally for 3 consecutive days with 400 ng per dose of IL-33. Outcome measures were evaluated 15 days after final exposure.
Immediately after flexiVent analysis, lung sections were collected in RIPA buffer (50 mmol/L Tris [pH 7.4], 150 mmol/L NaCl, 1 mmol/L EDTA, 1 mmol/L NaF, 1 mmol/L Na3VO4, and 0.1 mmol/L phenylmethylsulfonyl fluoride) containing protease and phosphatase inhibitors and homogenized. Lysed samples were subjected to 10% SDS-PAGE, transferred to a polyvinylidene difluoride membrane, and then immunoblotted with primary antibodies (IL-33 [R&D Systems], tubulin [H-235], and b-actin [Santa Cruz Biotechnology, Dallas, Tex]). […] Cellular RNA was analyzed for mRNA for IL-33 and IL-33R. […] Cellular RNAwas analyzed for mRNA for IL-33. […] Cellular RNA was analyzed for mRNA for IL-33. In a fourth experiment cells were treated for 24 hours with IL-13 (20 ng/mL) and ATP, and the supernatant was collected and analyzed for IL-33 levels by means of ELISA, according to the manufacturer's instructions (R&D systems).

C[C@@H]1C[C@H]2[C@@H]3CCC4=CC(=O)C=C[C@]4(C)[C@@]3(F)[C@@H](O)C[C@]2(C)[C@@]1(O)C(=O)CO [Dexamethasone, dexamethasone]
cell count decrease after dexamethasone treatment, MEK^low CD4 T cells (MEK^low population): 2.7 fold

IL-13: cytokine purchased from PeproTech, 20 ng/mL on A549 cells
IL-33 autoinduction after preincubation with cytokine (A549 cells [1]): synergistically enhanced IL-33 autoinduction | induction of IL-33R mRNA (A549 cells [2]): strongly induced IL-33R | induction of IL-33 mRNA [3]: most potent inducer of IL-33 mRNA | secretion of IL-33 (A549 cells [4]): stimulated secretion of IL-33
